compound: CC(C)(C)c1nc(-c2cccc(NS(=O)(=O)c3c(F)cccc3F)c2F)c(-c2ccnc(N)n2)s1 [Dabrafenib] + COc1cc2c(Oc3ccc(NC(=O)C4(C(=O)Nc5ccc(F)cc5)CC4)cc3F)ccnc2cc1OCCCN1CCOCC1 [Foretinib] (partner 0.25 µM); experiment: relative viability (nuclei count vs DMSO), 5 days (fraction); higher = more cells survive; conditions: first compound 0.003 µM
How it was run: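 For relative viability, nuclei counts in treated wells were divided by those in vehicle wells. Lung cancer cell lines had been pin-tool dosed in 1536-well plates the day after seeding and cultured for 5 days, then fixed and stained in one step (final 0.05% Triton X-100, 1% formaldehyde, 1 ug/ml Hoechst) and imaged at 4×. Doses were one drug alone or a fixed anchor-drug dose plus five library-drug doses (not always all listed) in √10 steps, and values are duplicate-plate medians.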

Compared with NCI-H460, H3255 is lower in relative viability: 0.949 for the first, 0.688 for the second.

First: NCI-H838
Second: EPLC-272H
The relative viability of the first is higher: 1 for the first, 0.671 for the second.

First: NCI-H3122
Second: NCI-H1915
The relative viability of the first is lower: 1.04 for the first, 1.2 for the second.

First: NCI-H1975
Second: LK-2
The relative viability of the first is lower: 0.965 for the first, 1.14 for the second.

First: HCC-366
Second: LCLC-97TM1
The relative viability of the first is lower: 0.894 for the first, 0.938 for the second.

First: NCI-H1993
Second: PC-3 [JPC-3]
The relative viability of the first is lower: 0.762 for the first, 1 for the second.

Going from LXF-289 to NCI-H358, the relative viability falls from 1.01 to 0.662.

Compared with 201T, NCI-H1666 is lower in relative viability: 1.11 for the first, 0.907 for the second.

Compared with HARA, NCI-H1395 is higher in relative viability: 0.907 for the first, 0.997 for the second.

same assay, conditions: first compound 0.009487 µM

Compared with NCI-H460, H3255 is lower in relative viability: 1.01 for the first, 0.897 for the second.

Compared with NCI-H1793, NCI-H23 is higher in relative viability: 0.93 for the first, 1.04 for the second.

Going from NCI-H838 to EPLC-272H, the relative viability falls from 1.06 to 0.811.

First: NCI-H3122
Second: NCI-H1915
The relative viability of the first is lower: 0.959 for the first, 1.08 for the second.

Going from NCI-H727 to NCI-H1975, the relative viability rises from 0.886 to 0.907.

First: LK-2
Second: HCC-366
The relative viability of the first is higher: 1.17 for the first, 0.944 for the second.

Compared with NCI-H2087, LCLC-97TM1 is lower in relative viability: 1.04 for the first, 0.99 for the second.

Going from NCI-H2405 to NCI-H1993, the relative viability falls from 0.985 to 0.852.

First: PC-3 [JPC-3]
Second: NCI-H2347
The relative viability of the first is higher: 1.09 for the first, 1.01 for the second.

Compared with LXF-289, NCI-H358 is lower in relative viability: 1.03 for the first, 0.862 for the second.

First: LC-2-ad
Second: 201T
The relative viability of the first is lower: 1.09 for the first, 1.2 for the second.

First: NCI-H1666
Second: NCI-H322M
The relative viability of the first is lower: 0.944 for the first, 1.19 for the second.

First: HARA
Second: NCI-H1395
The relative viability of the first is higher: 0.906 for the first, 0.892 for the second.

same assay, conditions: first compound 0.03 µM

Compared with NCI-H460, H3255 is higher in relative viability: 0.961 for the first, 1.09 for the second.

Compared with NCI-H23, NCI-H838 is lower in relative viability: 0.906 for the first, 0.801 for the second.

First: EPLC-272H
Second: NCI-H3122
The relative viability of the first is lower: 0.619 for the first, 0.935 for the second.

First: NCI-H1915
Second: NCI-H727
The relative viability of the first is higher: 1.09 for the first, 0.601 for the second.

First: NCI-H1975
Second: HCC-366
The relative viability of the first is higher: 0.922 for the first, 0.812 for the second.

Going from NCI-H2087 to LCLC-97TM1, the relative viability falls from 0.988 to 0.972.

First: NCI-H1993
Second: PC-3 [JPC-3]
The relative viability of the first is lower: 0.64 for the first, 1.1 for the second.

First: LXF-289
Second: NCI-H358
The relative viability of the first is higher: 0.993 for the first, 0.815 for the second.

Compared with LC-2-ad, 201T is higher in relative viability: 0.82 for the first, 1.12 for the second.

Going from NCI-H1666 to NCI-H322M, the relative viability falls from 0.951 to 0.75.

With NCI-H1395 the relative viability was 1.09.

same assay, conditions: first compound 0.09487 µM

Going from NCI-H460 to H3255, the relative viability falls from 0.933 to 0.667.

Compared with NCI-H23, NCI-H838 is higher in relative viability: 0.878 for the first, 0.923 for the second.

Going from EPLC-272H to NCI-H3122, the relative viability rises from 0.587 to 0.904.

First: NCI-H1915
Second: NCI-H727
The relative viability of the first is lower: 0.87 for the first, 0.947 for the second.

Going from NCI-H1975 to LK-2, the relative viability rises from 0.849 to 1.28.

Compared with HCC-366, NCI-H2087 is higher in relative viability: 0.875 for the first, 0.959 for the second.

Going from LCLC-97TM1 to NCI-H2405, the relative viability rises from 0.864 to 0.949.

Compared with NCI-H1993, PC-3 [JPC-3] is higher in relative viability: 0.71 for the first, 0.997 for the second.

First: LXF-289
Second: NCI-H358
The relative viability of the first is higher: 0.931 for the first, 0.771 for the second.

Compared with LC-2-ad, 201T is higher in relative viability: 0.922 for the first, 1.14 for the second.

First: NCI-H1666
Second: NCI-H322M
The relative viability of the first is higher: 0.969 for the first, 0.879 for the second.

Going from HARA to NCI-H1395, the relative viability rises from 0.78 to 0.874.

same assay, conditions: first compound 0.3 µM

First: NCI-H460
Second: H3255
The relative viability of the first is higher: 0.993 for the first, 0.839 for the second.

First: NCI-H1793
Second: NCI-H23
The relative viability of the first is lower: 0.598 for the first, 0.873 for the second.

First: NCI-H838
Second: EPLC-272H
The relative viability of the first is higher: 1.1 for the first, 0.738 for the second.

First: NCI-H3122
Second: NCI-H1915
The relative viability of the first is higher: 0.97 for the first, 0.949 for the second.

First: NCI-H727
Second: NCI-H1975
The relative viability of the first is higher: 1.1 for the first, 0.957 for the second.

Compared with LK-2, HCC-366 is lower in relative viability: 1.26 for the first, 0.891 for the second.

Compared with NCI-H2087, LCLC-97TM1 is lower in relative viability: 1.09 for the first, 0.953 for the second.

Going from NCI-H2405 to NCI-H1993, the relative viability falls from 1.07 to 0.901.

First: PC-3 [JPC-3]
Second: NCI-H2347
The relative viability of the first is higher: 1.01 for the first, 0.932 for the second.

First: LXF-289
Second: NCI-H358
The relative viability of the first is higher: 1.01 for the first, 0.76 for the second.

First: LC-2-ad
Second: 201T
The relative viability of the first is lower: 1.1 for the first, 1.26 for the second.

With NCI-H1666 the relative viability was 1.1.

— the supplement of paper PMC10307832
